Assay results reported in ChEMBL document CHEMBL3232986, “Identification of a novel series of potent HCV NS5B Site I inhibitors” (Bioorg Med Chem Lett, 2014).

What was measured:
[1] = Inhibition of HCV genotype 1b wild type NS5B polymerase using biotinylated oligo dT12 primer as substrate after 4 hrs in presence of [3H]UTP; design: species or system Hepatitis C virus subtype 1b
Hepatitis C virus = test: Antiviral activity against HCV genotype 1a H77c infected in human HuH7 cells after 3 days by luciferase reporter gene assay; type: functional, cell-based, Hepacivirus hominis; conditions: Huh-7, 72 h
[2] = Cytotoxicity against human HuH7 cells after 4 hrs by CellTitre-Blue assay; type: cell-based, Huh-7
[3] = (§1) Plasma concentration in rat at 5 mg/kg, iv after 6 hrs; type: ADME, organism-based; design: dose 5 mg/kg, route intravenous; conditions: plasma
[4] = (§2) Plasma concentration in rat at 10 mg/kg, po after 6 hrs; type: ADME, organism-based; design: dose 10 mg/kg, route oral; conditions: plasma
[5] = (§3) Drug uptake in rat liver at 5 mg/kg, iv after 6 hrs; type: ADME, organism-based; design: dose 5 mg/kg, route intravenous; conditions: liver, read-out: Drug uptake
[6] = (§4) Drug uptake in rat liver 10 mg/kg, po after 6 hrs; type: ADME, organism-based; design: dose 10 mg/kg, route oral; conditions: liver, read-out: Drug uptake
[7] = Clearance in rat after 6 hrs; type: ADME, organism-based; conditions: in vivo
[8] = Cytotoxicity against human HuH7 cells after 3 days by Alamar blue assay; type: cell-based, Huh-7
[9] = Ratio of EC50 for HCV genotype 1a H77c replicon cells to IC50 for HCV genotype 1b wild type NS5B polymerase
[10] = Permeability of the compound at pH 7.4 by PAMPA; type: physicochemical; conditions: read-out: permeability
[11] = Permeability of the compound at pH 5.5 by PAMPA; type: physicochemical; conditions: read-out: permeability
Plasma [12] = test: as §1; type: ADME, organism-based; design: dose 5 mg/kg, route intravenous; conditions: in vivo, 6 h, BLD = below limit of detection
Plasma [13] = test: as §2; type: ADME, organism-based; design: dose 10 mg/kg, route oral; conditions: in vivo, 6 h, BLD = below limit of detection
Liver [14] = test: as §3; type: ADME, organism-based; design: dose 5 mg/kg, route intravenous; conditions: in vivo, 6 h, BLD = below limit of detection
Liver [15] = test: as §4; type: ADME, organism-based; design: dose 10 mg/kg, route oral; conditions: in vivo, 6 h, BLD = below limit of detection

SMILES	IC50 [1]	EC50 (Hepatitis C virus)	CC50 at 4 h [2]	also measured
COc1ccc2c(c1)[C@@H]1C[C@]1(C(=O)N1CC34CCC3(CN(C(=O)N3CCOCC3)C4)C1)Cn1c-2c(C2CCCCC2)c2ccc(C(=O)NS(=O)(=O)C(C)C)cc21 (some centres undefined)	5 nM	28 nM	27000 nM	
COc1ccc2c(c1)[C@@H]1C[C@]1(C(=O)N1CC34CCC3(CN(C(C)=O)C4)C1)Cn1c-2c(C2CCCCC2)c2ccc(C(=O)NS(=O)(=O)C(C)C)cc21 (some centres undefined)	2 nM	31 nM	37000 nM	
COc1ccc2c(c1)[C@@H]1C[C@]1(C(=O)N1CC34CCC3(CN(C(=O)N(C(C)C)C(C)C)C4)C1)Cn1c-2c(C2CCCCC2)c2ccc(C(=O)NS(=O)(=O)N(C)C)cc21 (some centres undefined)	7 nM	23 nM	7000 nM	
CNC(=O)N1CC23COCC2(C1)CN(C(=O)[C@]12C[C@H]1c1cc(OC)ccc1-c1c(C4CCCCC4)c4ccc(C(=O)NS(=O)(=O)N(C)C)cc4n1C2)C3 (some centres undefined)	2 nM	86 nM	96000 nM	Ratio [9]: 43; Papp [10]: 3.7 ×10⁻⁶ cm/s
COc1ccc2c(c1)[C@@H]1C[C@]1(C(=O)N1CC34CCC3(CN(C(=O)N(C(C)C)C(C)C)C4)C1)Cn1c-2c(C2CCCCC2)c2ccc(C(=O)NS(=O)(=O)C(C)C)cc21 (some centres undefined)	4 nM	37 nM	10000 nM	
COc1ccc2c(c1)[C@@H]1C[C@]1(C(=O)N1CC34CCC3(CN(CC(F)(F)F)C4)C1)Cn1c-2c(C2CCCCC2)c2ccc(C(=O)NS(=O)(=O)C(C)C)cc21 (some centres undefined)	7 nM	77 nM	35000 nM	
COc1ccc2c(c1)[C@@H]1C[C@]1(C(=O)N1CC34CNCC3(COC4)C1)Cn1c-2c(C2CCCCC2)c2ccc(C(=O)NS(=O)(=O)C(C)C)cc21 (some centres undefined)	6 nM	23 nM		
COC(=O)N1CC23CCC2(C1)CN(C(=O)[C@]12C[C@H]1c1cc(OC)ccc1-c1c(C4CCCCC4)c4ccc(C(=O)NS(=O)(=O)C(C)C)cc4n1C2)C3 (some centres undefined)	25 nM	64 nM	3000 nM	
COC(=O)N1CC23COCC2(C1)CN(C(=O)[C@]12C[C@H]1c1cc(OC)ccc1-c1c(C4CCCCC4)c4ccc(C(=O)NS(=O)(=O)N(C)C)cc4n1C2)C3 (some centres undefined)		462 nM	7000 nM	
COc1ccc2c(c1)[C@@H]1C[C@]1(C(=O)N1CC34CNCC3(CN(C)C4)C1)Cn1c-2c(C2CCCCC2)c2ccc(C(=O)NS(=O)(=O)C(C)C)cc21 (some centres undefined)	5 nM	41 nM		
COc1ccc2c(c1)[C@@H]1C[C@]1(C(=O)N1CC34CCC3(CN(C(=O)N3CCCC3)C4)C1)Cn1c-2c(C2CCCCC2)c2ccc(C(=O)NS(=O)(=O)C(C)C)cc21 (some centres undefined)	4 nM	27 nM	14000 nM	
COC(=O)N1CC23COCC2(C1)CN(C(=O)[C@]12C[C@H]1c1cc(OC)ccc1-c1c(C4CCCCC4)c4ccc(C(=O)NS(=O)(=O)C(C)C)cc4n1C2)C3 (some centres undefined)	23 nM	46 nM	5000 nM	
COc1ccc2c(c1)[C@@H]1C[C@]1(C(=O)N1CC34CCC3(CN(CC(F)(F)F)C4)C1)Cn1c-2c(C2CCCCC2)c2ccc(C(=O)NS(=O)(=O)N(C)C)cc21 (some centres undefined)	4 nM	55 nM	26000 nM	
CNC(=O)N1CC23COCC2(C1)CN(C(=O)[C@]12C[C@H]1c1cc(OC)ccc1-c1c(C4CCCCC4)c4ccc(C(=O)NS(=O)(=O)C(C)C)cc4n1C2)C3 (some centres undefined)	3 nM	200 nM	> 100000 nM	Ratio [9]: 66; Papp [10]: 1.8 ×10⁻⁶ cm/s
COc1ccc2c(c1)[C@@H]1C[C@]1(C(=O)N1CC34COCC3(CN(C(C)=O)C4)C1)Cn1c-2c(C2CCCCC2)c2ccc(C(=O)NS(=O)(=O)C(C)C)cc21 (some centres undefined)	3 nM	42 nM	> 100000 nM	Ratio [9]: 14

These reach a lower EC50 (Hepatitis C virus). Values come first.

IC50 [1]	EC50 (Hepatitis C virus)	SMILES	CC50 at 4 h [2]	also measured
4 nM	1 nM	COc1ccc2c(c1)[C@@H]1C[C@]1(C(=O)N1CC34COCC3(CN(C)C4)C1)Cn1c-2c(C2CCCCC2)c2ccc(C(=O)NS(=O)(=O)C(C)C)cc21 (some centres undefined)		concentration at 6 h [3]: 6 nM; concentration at 6 h [4]: 2 nM; concentration at 6 h [5]: 52 nM; concentration at 6 h [6]: 38 nM; clearance [7]: 27 mL/min/kg; CC50 at 72 h [8]: 14000 nM
2 nM	20 nM	CNC(=O)N1CC23CCC2(C1)CN(C(=O)[C@]12C[C@H]1c1cc(OC)ccc1-c1c(C4CCCCC4)c4ccc(C(=O)NS(=O)(=O)C(C)C)cc4n1C2)C3 (some centres undefined)	72000 nM	
	3 nM	CCOCCN1CC23COCC2(C1)CN(C(=O)[C@]12C[C@H]1c1cc(OC)ccc1-c1c(C4CCCCC4)c4ccc(C(=O)NS(=O)(=O)N(C)C)cc4n1C2)C3 (some centres undefined)	16000 nM	
2 nM	18 nM	COc1ccc2c(c1)[C@@H]1C[C@]1(C(=O)N1CC34CCC3(CN(C(=O)N3CCCC3)C4)C1)Cn1c-2c(C2CCCCC2)c2ccc(C(=O)NS(=O)(=O)N(C)C)cc21 (some centres undefined)	10000 nM	
4 nM	2 nM	COc1ccc2c(c1)[C@@H]1C[C@]1(C(=O)N1[C@@H]3CC[C@H]1CN(C)C3)Cn1c-2c(C2CCCCC2)c2ccc(C(=O)NS(=O)(=O)N(C)C)cc21 [BECLABUVIR]	16000 nM	
2 nM	19 nM	COc1ccc2c(c1)[C@@H]1C[C@]1(C(=O)N1CC34COCC3(CN(CC(F)(F)F)C4)C1)Cn1c-2c(C2CCCCC2)c2ccc(C(=O)NS(=O)(=O)N(C)C)cc21 (some centres undefined)	7000 nM	
4 nM	7 nM	COc1ccc2c(c1)[C@@H]1C[C@]1(C(=O)N1CC34CCC3(C1)CN(S(=O)(=O)C(C)C)C4)Cn1c-2c(C2CCCCC2)c2ccc(C(=O)NS(=O)(=O)C(C)C)cc21 (some centres undefined)	10000 nM	
4 nM	4 nM	COc1ccc2c(c1)[C@@H]1C[C@]1(C(=O)N1CC34CCC3(CN(C)C4)C1)Cn1c-2c(C2CCCCC2)c2ccc(C(=O)NS(=O)(=O)C(C)C)cc21 (some centres undefined)	21000 nM	concentration at 6 h [3]: 26 nM; concentration at 6 h [4]: 6 nM; concentration at 6 h [5]: 138 nM; concentration at 6 h [6]: 146 nM; clearance [7]: 24 mL/min/kg
5 nM	12 nM	COc1ccc2c(c1)[C@@H]1C[C@]1(C(=O)N1CC34CCC3(C1)CN(C1CC1)C4)Cn1c-2c(C2CCCCC2)c2ccc(C(=O)NS(=O)(=O)C(C)C)cc21 (some centres undefined)	18000 nM	
5 nM	1 nM	COc1ccc2c(c1)[C@@H]1C[C@]1(C(=O)N1CC34CN(C)CC3(CN(C)C4)C1)Cn1c-2c(C2CCCCC2)c2ccc(C(=O)NS(=O)(=O)C(C)C)cc21 (some centres undefined)	43000 nM	concentration at 6 h [3]: 14 nM; concentration at 6 h [4]: 4 nM; concentration at 6 h [5]: 66 nM; concentration at 6 h [6]: 68 nM; clearance [7]: 25 mL/min/kg
4 nM	4 nM	CCN1CC23COCC2(C1)CN(C(=O)[C@]12C[C@H]1c1cc(OC)ccc1-c1c(C4CCCCC4)c4ccc(C(=O)NS(=O)(=O)C(C)C)cc4n1C2)C3 (some centres undefined)	11000 nM	concentration at 6 h [3]: 8 nM; concentration at 6 h [4]: 6 nM; concentration at 6 h [6]: 66 nM; clearance [7]: 49 mL/min/kg
	5 nM	CCOCCN1CC23COCC2(C1)CN(C(=O)[C@]12C[C@H]1c1cc(OC)ccc1-c1c(C4CCCCC4)c4ccc(C(=O)NS(=O)(=O)C(C)C)cc4n1C2)C3 (some centres undefined)	19000 nM	concentration at 6 h [3]: 32 nM; concentration at 6 h [4]: 8 nM; concentration at 6 h [5]: 77 nM; concentration at 6 h [6]: 116 nM; clearance [7]: 81 mL/min/kg
2 nM	6 nM	COc1ccc2c(c1)[C@@H]1C[C@]1(C(=O)N1CC34COCC3(C1)CN(S(=O)(=O)C(C)C)C4)Cn1c-2c(C2CCCCC2)c2ccc(C(=O)NS(=O)(=O)N(C)C)cc21 (some centres undefined)	12000 nM	
3 nM	2 nM	COc1ccc2c(c1)[C@@H]1C[C@]1(C(=O)N1CC34CCCC3(CN(C)C4)C1)Cn1c-2c(C2CCCCC2)c2ccc(C(=O)NS(=O)(=O)C(C)C)cc21 (some centres undefined)	11000 nM	concentration at 6 h [3]: 22 nM; concentration at 6 h [4]: 24 nM; concentration at 6 h [5]: 428 nM; concentration at 6 h [6]: 504 nM; clearance [7]: 31 mL/min/kg
4 nM	16 nM	COc1ccc2c(c1)[C@@H]1C[C@]1(C(=O)N1CC34COCC3(CN(CC(F)(F)F)C4)C1)Cn1c-2c(C2CCCCC2)c2ccc(C(=O)NS(=O)(=O)C(C)C)cc21 (some centres undefined)	8000 nM	
	8 nM	COc1ccc2c(c1)[C@@H]1C[C@]1(C(=O)N1CC34CCC3(C1)CN(C1CC1)C4)Cn1c-2c(C2CCCCC2)c2ccc(C(=O)NS(=O)(=O)N(C)C)cc21 (some centres undefined)	5000 nM	
2 nM	16 nM	COc1ccc2c(c1)[C@@H]1C[C@]1(C(=O)N1CC34COCC3(C1)CN(S(=O)(=O)C(C)C)C4)Cn1c-2c(C2CCCCC2)c2ccc(C(=O)NS(=O)(=O)C(C)C)cc21 (some centres undefined)	17000 nM	Ratio [9]: 8
2 nM	15 nM	COc1ccc2c(c1)[C@@H]1C[C@]1(C(=O)N1CC34CCC3(CN(C(=O)N3CCOCC3)C4)C1)Cn1c-2c(C2CCCCC2)c2ccc(C(=O)NS(=O)(=O)N(C)C)cc21 (some centres undefined)	21000 nM	Papp [10]: 25.9 ×10⁻⁶ cm/s; Papp [11]: 11.3 ×10⁻⁶ cm/s
2 nM	8 nM	COc1ccc2c(c1)[C@@H]1C[C@]1(C(=O)N1CC34COCC3(CN(C(C)=O)C4)C1)Cn1c-2c(C2CCCCC2)c2ccc(C(=O)NS(=O)(=O)N(C)C)cc21 (some centres undefined)		Ratio [9]: 4; Cp (Plasma [12]): BLD; Cp (Plasma [13]): BLD; Drug uptake (Liver [14]): BLD; Drug uptake (Liver [15]): BLD; clearance [7]: 19 mL/min/kg; CC50 at 72 h [8]: 24000 nM
